According to publication PMC10221314 (Pharmaceuticals, 2023):

Key:
FXR = molecular target: T1, FXR (Homo sapiens, UniProt Q96RI1); test: Yeast one-hybrid assay of FXR antagonistic activity in HEK-293T cells; format: cell-based
T1 construct: a fusion plasmid of Gal4 DBD-NR-LBD, which included PPARα, PPARβ, PPARγ, RXRα, RXRβ, RXRγ, LXRα, LXRβ, GPBAR, PXR, and FXR; expressed in transfected cells; host or cells: HEK-293T
T1 sequence (Q96RI1 262-486 limits assumed): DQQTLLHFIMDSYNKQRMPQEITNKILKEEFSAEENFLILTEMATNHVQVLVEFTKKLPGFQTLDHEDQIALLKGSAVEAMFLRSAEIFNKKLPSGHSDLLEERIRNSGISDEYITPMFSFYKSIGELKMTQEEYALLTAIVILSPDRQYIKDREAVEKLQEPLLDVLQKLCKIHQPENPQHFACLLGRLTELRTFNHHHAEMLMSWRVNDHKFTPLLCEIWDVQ
Description: Cell counting: HEK-293T cells in logarithmic growth phase were digested with 0.25% trypsin, collected, and centrifuged. The trypsin-containing medium was discarded, and 2 mL of fresh phenol red-free DMEM medium containing 5% fetal bovine serum was added. The cells were then mixed with the medium to prepare a cell suspension and counted on a cell counting plate.
Cell plating: A determined number of cells were taken from the cell suspension, diluted with phenol red-free DMEM medium containing 5% fetal bovine serum, and plated at a concentration of 10,000 cells per well (100 µL medium) in a 96-well plate. The plate was then incubated at 37 °C and 5% CO2 for 24 h.
Cell transfection: Fresh phenol red-free DMEM medium was taken in a sterile environment, and the previously extracted pFXR-Binding plasmid and PG4.35[luc2P-9XGA4UAS-Hygro] plasmid were added. The mixture was stirred and allowed to stand at 23 °C for 3 min. Then, a 3% amount of transfection reagent was added to the mixture, and it was allowed to stand at 23 °C for 15 min. The mixture was then added to the 96-well plate at a volume of 10 µL per well and incubated at 37 °C in a 5% CO2 environment for 24 h.
The OA derivatives were prepared as 10 mM DMSO stock solutions and further diluted in a concentration gradient, with 10 µL added to each well. The final concentrations of the derivatives ranged from 10 µM to 0.03 µM, with 7 concentration gradients using […] dilution. The test was set with 3 duplicated wells.
Antagonism activity test: The firefly-Renilla Dual Fluorescence Assay Kit (Promega, #E2940, Madison, WI, USA) was used to measure the antagonism activity of the OA derivatives. Firstly, the firefly fluorescence reagent was added to the 96-well plate at a volume of 70 µL per well and shaken in darkness for 15 min. Then, the fluorescence intensity was measured at a wavelength of 645 ± 30 nm in a microplate reader (BioTek, Winooski, VT, USA). Next, the volume of Renilla reagent was added to the 96-well plate at a volume of 70 µL per well and shaken in darkness for 15 min. The fluorescence intensity was then measured at a wavelength of 525 ± 20 nm.
Data processing: The fluorescence data of firefly were divided by the fluorescence data of Renilla to remove errors, and the antagonism efficiency was calculated using the following formula: antagonism efficiency (%) = [1 − (FCompds. − FDMSO)/(FCDCA − FDMSO)] × 100%. In the formula, F represents fluorescence intensity. The antagonistic efficiency data were obtained as a concentration–effect curve using Graphpad Prism 8.0 software, and the corresponding IC50 value was calculated.

HFD mice = test: CDAHFD diet-induced NASH mouse model; format: in vivo
Description: Cells and liver tissue samples were subjected to RNA extraction and purification, followed by reverse transcription of equal amounts of total RNA into […] using a Transcriptor First Strand cDNA Synthesis Kit (Roche). The relative expression levels of the target gene were determined using TaqMan probe/primers with an ABI Q3 quantitative real-time PCR system, while GAPDH/Gapdh was utilized as an internal control for mRNA expression. The fold change in the expression of the target mRNA was calculated using Equation 2^−ΔΔCt.
A total of 24 C57BL/6N mice were randomly assigned to three groups, including Ctrl., Model-N.S., and Model-10b-100 mg·kg^−1, with eight animals per group. The randomization process was performed using Research Randomizer (RRID: SCR_008563). CDHFD (D09100310) diet was obtained from Research Diets Inc. Sixteen mice were fed the CDHFD diet for 12 weeks to induce NASH, with eight mice receiving a normal diet as a control. At the beginning of the 13th week, the mice in the model group were randomly assigned into two groups and given daily gavages of either normal saline (Model-N.S. group) or 100 mg·kg^−1 of compound 10b suspended in 0.5% sodium carboxymethylcellulose solution (Model-10b groups) for four weeks. Daily bodyweights were recorded, and blood samples were collected from the abdominal aorta following an overnight fast. Afterward, the mice were euthanized using isoflurane. Liver tissue samples were obtained, and some were treated with 4% paraformaldehyde to prepare them for future histological analysis, while others were kept at −80 °C for later examination. Maximum liver lobule was collected for each mouse.
Kits purchased from Zhongsheng Beikong Biotechnology (Beijing, China) were used to measure the serum concentrations of alanine aminotransferase, aspartate aminotransferase, alkaline phosphatase, γ-glutamyl transpeptidase, total cholesterol, total triglyceride, low-density lipoprotein (LDL), high-density lipoprotein (HDL) cholesterol, lactate dehydrogenase, total bile acid, and total bilirubin. The samples were analyzed on a Hitachi 7100 Analyzer.
The liver tissue was fixed with formalin, embedded in paraffin, and sectioned. The sections were stained with H&E, Oil Red, Masson’s, and Sirius Red. Liver necrosis, inflammation, bile duct proliferation, hepatic steatosis, and lobule inflammation were evaluated on a scale of 1–5 in a blinded manner using a Leica DM1000 microscope. Five randomly selected manifold area fields of vision were used to quantify the red area in each field of vision (eight in each group), which was counted using ImageJ software. The liver hydroxyproline concentration was determined using kits from Nanjing, China, in accordance with the manufacturer’s instructions.
The mouse liver samples were cut into small pieces of 50 mg size and homogenized in TG, TC, and FC extracts using a high-speed tissue homogenizer. The TG, TC, and FC were then extracted from the tissue, and their contents in the sample were calculated using the protein content for calibration. The determination process utilized the test kit for TC, TG, and FC of high-fat samples from Applygen Technologies Inc. (E1025, E1026, E1027).

[1] = HFD (CDAHFD) mice, 100 mg·kg-1 gavage daily, four weeks

CC1(C)CCC2(C(=O)O)CCC3(C)C(C(OC(=O)CCC(NC(=O)OC(C)(C)C)C(=O)OC(C)(C)C)CC4C5(C)CCC(O)C(C)(C)C5CCC43C)C2C1 [Compound 10b, 3β-hydroxy-12β-(4′-((tert-butoxycarbonyl)amide)-5′-(tert-butoxy)-L-glutamte)oxy-13H-olean-28-oic acid]
IC50 (FXR; HEK-293T cells, CDCA (50 μM) as agonist, mean ± SE of three independent tests): 440 ± 150 nM | times more potent than 10d (FXR; ratio of IC50 values): 8.3 | hepatic lobular inflammation (NAS score) (HFD mice; CDAHFD mice, 100 mg·kg-1): improved | intrahepatic steatosis (NAS score) (HFD mice; CDAHFD mice, 100 mg·kg-1): improved | liver FC (free cholesterol) (HFD mice; CDAHFD mice, 100 mg·kg-1): no significant effect | liver TC (HFD mice; CDAHFD mice, 100 mg·kg-1): no significant effect | total triglyceride content in the liver (HFD mice; CDAHFD mice, 100 mg·kg-1): reduced | Serum ALP (HFD mice; [1]): 189.71±29.41 U·L-1 | Serum ALT (HFD mice; [1]): 325.43±88.40 U·L-1 | Serum AST (HFD mice; [1]): 401.86±91.05 U·L-1 | Serum CHO (HFD mice; [1]): 2.36 ± 0.44 mmol/L | Serum Glu (HFD mice; [1]): 5.71 ± 1.25 mmol/L | Serum HDL (HFD mice; [1]): 1.22 ± 0.33 mmol/L | Serum LDH (HFD mice; [1]): 1326.57±264.54 U·L-1 | Serum LDL (HFD mice; [1]): 0.23 ± 0.04 mmol/L | Serum TBA (HFD mice; [1]): 23.46 ± 12.81 µmol/L | Serum TBiL (HFD mice; [1]): 3.81 ± 0.92 µmol/L | mRNA expression of liver fibrosis-related genes in liver (HFD mice; NASH mouse model, 100 mg·kg-1): inhibit
